Data on 1 compound can be found in US9517244B2, “Therapeutic combinations for use in neoplasia” (University of Florida Research Foundation, Inc., priority 2011, dated 2016).

Assay [1] deals with AsPC1. The assay is described as follows: MTT assay, pancreatic cancer cell line. Particulars: Homo sapiens; AsPC1 (dFdC-resistant); single agent; 72 h; read-out: IC50. In kind it is cell-based, human. (Tetrazolium assays rely on reduction of a dye to a coloured formazan, in cell work by metabolically active cells.)
The target in assay [2] is Fen1 (Homo sapiens, UniProt P39748). The assay is described as follows: Fen1 activity in vitro. The assay is classed as biochemical. The conditions noted are these: 0.5-5 μM; Fen1 1 nM. Here is the method: (§1) Lanes 4-7 contained increasing concentrations of NSC-30049 (0.5, 1, 2.5, and 5 μM, respectively). The arrows indicate the positions of the 63-mer substrate and the products. […] Data are representative of three different experiments.
Chain of Fen1 (P39748 whole entry, species assumed): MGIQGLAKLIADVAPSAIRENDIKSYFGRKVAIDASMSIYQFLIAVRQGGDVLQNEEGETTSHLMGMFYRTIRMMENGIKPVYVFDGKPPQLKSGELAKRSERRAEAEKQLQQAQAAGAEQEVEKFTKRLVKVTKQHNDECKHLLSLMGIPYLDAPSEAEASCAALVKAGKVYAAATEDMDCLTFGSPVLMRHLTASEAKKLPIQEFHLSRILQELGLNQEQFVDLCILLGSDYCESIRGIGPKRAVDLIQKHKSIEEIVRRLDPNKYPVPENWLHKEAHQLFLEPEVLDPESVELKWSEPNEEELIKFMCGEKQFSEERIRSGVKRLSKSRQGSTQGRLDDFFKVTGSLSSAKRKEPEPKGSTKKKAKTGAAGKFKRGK

Assay [3] concerns Mia-PaCa2. The assay is described as follows: MTT assay, pancreatic cancer cell line. The assay is classed as cell-based, human. Particulars: Homo sapiens, MIA PaCa-2; Mia-PaCa2 (dFdC-resistant); single agent; 72 h; read-out: IC50.
The test system of assay [4] is CD133, Nanog, Oct4, Sox2 expression in GBM-L0 stem cells. The assay can be described thus: qRT-PCR of self-renewal genes in GBM-L0 stem cells. The assay is classed as cell-based. The conditions noted are these: 2.5 μM NSC-30049 + 10 or 100 μM TMZ, 36 h, compared to either alone. The procedure: Cells were pretreated with 2.5 μM of NSC30049 or 10 or 100 μM TMZ alone or in combination with NSC-30049 for 36 h. Then, total RNA was isolated and processed for gRT-PCR. Data presented are the mean±SE of three different measurements. […] Treatment with NSC-30049 or TMZ reduced the expression of aldehyde dehydrogenase gene Aldh1a7 in GBM-LO stem cell line in vitro, but not treatment with NSC-30049 and TMZ. Cells were pretreated with 2.5 μM of NSC30049 or 10 or 100 μM of TMZ alone or in combination with NSC-30049 for 36 h. Then, total RNA was isolated and processed for qRT-PCR. Data presented are the mean±SE of three different measurements.
Without being bound to a particular theory, the effect of administration of NSC-30049 in combination with temozolomide (TMZ) on the expression of self-renewal marker genes of […] was analyzed. Self-renewal marker genes are highly expressed in colon cancer stem cells compared to human parental cancer cells. qRT-PCR data of CD133+, Oct4, Sox2 and Nanog gene expression levels of GBM-L0 stem cells was obtained (FIG. 14A). Cells were pretreated with 2.5 μM of NSC30049 or 10 or 100 μM of TMZ alone or in combination with NSC-30049 for 36 h. Then, total RNA was isolated and processed for qRT-PCR. Data presented are the mean±SE of three different measurements. […]
A general note: Real-time PCR tracks product formation cycle by cycle.

Assay [5] relates to A172. The assay can be described thus: MTT assay, brain cancer cell line. In kind it is cell-based. The conditions noted are these: Homo sapiens, A 172, 120 h, single agent, read-out: IC50 of NSC-30049. Here is the method: (§2) The use of NSC-30049 as a chemopreventive agent for the treatment of brain cancer was also tested. NSC-30049 in combination with temozolomide was administered to brain cancer cell lines, including U118, U138, U87MG, A172, and T98 cell lines (Table 6). Cells were pretreated with the indicated concentrations of NSC-30049 followed by TMZ for 120 h. After treatment, cells were processed for the determination of viability by cell proliferation assay (MTT assay). The data from the graph was used for the determination of IC50, which is presented as the mean±SE of three different estimations. Increasing the concentration of NSC-30049 decreased the IC50 of temozolomide for all cell lines tested, regardless of whether they were MMR proficient or deficient.

The test system of assay [6] is U138. The assay is described as follows: MTT assay, brain cancer cell line. In kind it is cell-based. The conditions noted are these: 120 h, single agent, read-out: IC50 of NSC-30049. Here is the method:
as §2

In assay [7] the test system is U118. The assay can be described thus: MTT assay, brain cancer cell line. The assay is classed as cell-based. The conditions noted are these: 120 h, single agent, read-out: IC50 of NSC-30049. The procedure: as §2
In assay [8] the test system is U87MG. The assay can be described thus: MTT assay, brain cancer cell line. Particulars: Homo sapiens, U-87 MG, 120 h, single agent, read-out: IC50 of NSC-30049. The assay is classed as cell-based. Here is the method: as §2
For assay [9], the system named is T98. The assay can be described thus: MTT assay, brain cancer cell line. The assay is classed as cell-based. Particulars: Homo sapiens, T98, 120 h, single agent, read-out: IC50 of NSC-30049. The procedure:
as §2

The subject of assay [10] is human parental cancer cells. The assay can be described thus: cell growth inhibition of parental cancer cells. In kind it is cell-based. The conditions noted are these: Homo sapiens, 72 h. Here is the method: Cells were treated with 1.25 μM of NSC-30049 and 1.25 μM of OPT either alone or in combination for 72 h. Data are mean±SD of triplicate experiments. […] Cells were treated with 1.25 μM of NSC-30049 and 1.25 μM of OPT either alone or in combination for 72 h. Fold change in gene expression values is shown as mean±SD of three experiments and are normalized to GAPDH gene expression.
The effect of administration of NSC-30049 in combination with oxaliplatin (OPT) was also examined in human parental cancer cells and colon cancer stem cells (FIG. 9A). Cells were treated with 1.25 μM of NSC-30049 and […] of OPT either alone or in combination for 72 h. Cell growth inhibition was assayed. Data presented are mean±SD of triplicate experiments.

Assay [11] concerns the target APE1 (Homo sapiens, UniProt P27695). The assay is described as follows: in vitro APE1 activity assay with purified APE1 and 32P-labeled 63-mer F-DNA. In kind it is biochemical. An excerpt:
FIGS. 4A and 4B depict the screening of small molecules. FIG. 4A depicts an in vitro assay system to determine the effect of compounds on the blockage of APE1-activity using purified APE1 and ^32P-labeled 63-mer F-DNA. FIG. 4B is a gel depicting the effect of the small molecules on APE1 activity. […] Data are representative of duplicate experiments.
FIG. 5A depicts an in vitro assay protocol using purified APE1 protein. FIG. 5B is an image of a gel showing a dose-dependent effect of NSC-30049 on APE1 activity. […] FIG. 5C is a graph depicting the percent cleavage and the IC50 of NSC-30049 to block APE1 activity, showing that APE1 is blocked in a dose-dependent manner. Data is mean±SE of three different experiments.
To determine the effect of compounds on the blockage of APE1 activity, an in vitro assay system was developed using purified APE1 and ^32P-labeled 63-mer F-DNA (FIG. 4A). Several small molecules (NSC-9746, NSC-18468, NSC-2137, NAC-30049 and NSC-32895) were screened for their ability to inhibit APE1 activity in the in vitro assay (FIG. 4B).

For assay [12], the target named is Pol-β (Homo sapiens, UniProt P06746). The assay can be described thus: Pol-β-directed strand-displacement synthesis, reconstituted in vitro assay. In kind it is biochemical. The conditions noted are these: 0.5, 1, 2.5 and 5 μM. The procedure:
as §1

The structures appear in SMILES notation.

Chain of APE1 (P27695 whole entry): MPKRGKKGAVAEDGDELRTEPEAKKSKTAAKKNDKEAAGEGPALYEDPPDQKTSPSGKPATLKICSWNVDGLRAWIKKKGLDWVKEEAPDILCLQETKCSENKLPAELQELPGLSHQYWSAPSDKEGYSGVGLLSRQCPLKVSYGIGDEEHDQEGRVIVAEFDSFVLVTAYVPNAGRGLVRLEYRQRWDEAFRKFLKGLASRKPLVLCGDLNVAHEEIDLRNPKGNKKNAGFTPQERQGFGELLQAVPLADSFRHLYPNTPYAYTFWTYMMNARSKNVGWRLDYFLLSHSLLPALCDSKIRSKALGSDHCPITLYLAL

As a reminder, the IC50 is the concentration at which inhibition is half-maximal. As usually defined, the inhibition is the percentage by which the read-out fell short of the control. Take `ClCC=CC[N+]12CN3CN(CN(C3)C1)C2` [NSC-30049, 1-(4-Chloro-2-butenyl)-1λ˜5˜,3,5,7-tetraazatricyclo[3.3.1.1˜3,7˜]decane]: the IC50 in [1] was 1.88 ± 0.11 µM; in assay [3], 5.12 ± 0.22 µM; in [5] it was 6.5 ± 0.3 µM; in assay [6], 2.1 ± 0.1 µM; in [7], 2.6 ± 0.1 µM; in assay [8], 5.6 ± 1 µM. The half-maximal inhibitory concentration (IC50) in assay [9] worked out at 10.1 ± 0.3 µM; in assay [11] (purified APE1, read-out: IC50 to block APE1 activity), 0.0072 µM. Moreover, the “effect on Fen1 activity” value in assay [2] is reported as “did not affect Fen1 activity”. The “expression of CD133, Nanog, Oct4, and Sox2” value in [4] was “significantly inhibited the expression of CD133, Nanog, Oct4, and Sox2”. Further, the inhibition at 1.25 µM in assay [10] (1.25 μM NSC-30049 in combination with 1.25 μM oxaliplatin) is roughly 70%; in [10] (alone, 1.25 μM), roughly 20%. Besides, the “inhibition of APE1 activity in screen” value in [11] (5, 10, 20 and 40 μM) is “inhibit APE1 activity in the in vitro assay at all concentrations tested”. Moreover, the “effect on Pol-β-directed strand-displacement synthesis” value in assay [12] is “did not affect Pol-β-directed strand-displacement synthesis”.
